# Results taken from US6706663B2, “Herbicidal 3-heterocyclic substituted benzisothiazole and benzisoxazole compounds” (Wyeth, priority 2000, dated 2004).
# Tests used:
# [1] = tested on: IPOHE (Ipomoea hederacea); assay: Postemergence herbicidal evaluation; format: in vivo, (L.) Jacq.
# How it was run: (§1)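 Visual 0–9 injury scores versus control plants, covering stand, vigour, malformation, size, chlorosis and general appearance, taken four to five weeks post-spray and averaged over replicate tests. Plants were sprayed at roughly two weeks old and held on greenhouse benches.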
# [2] = tested on: CHEAL (Chenopodium album); assay: Postemergence herbicidal evaluation; format: in vivo, L.
# How it was run: as §1
# [3] = tested on: AMBEL (Ambrosia artemisifolia); assay: Postemergence herbicidal evaluation; format: in vivo, L.
# How it was run: as §1
# [4] = tested on: CASOB (Cassia obtusifolia); assay: Postemergence herbicidal evaluation; format: in vivo, L.
# How it was run: as §1
# ORYSAT (Rice, Tebonnet) [5] = assay: Postemergence herbicidal evaluation; format: in vivo, Oryza sativa, (L.) Tebonnet
# How it was run: as §1
# [6] = tested on: CHEAL (Chenopodium album); assay: Preemergence herbicidal evaluation; format: in vivo, L.; settings: rated 4-5 weeks after treatment
# How it was run: (§2)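 Visual 0-9 rating versus untreated control, taken four to five weeks post-treatment, scoring stand, vigor, malformation, size, chlorosis and overall appearance. Compound applied as aqueous acetone spray to freshly seeded soil cups, then kept under standard greenhouse care.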
# [7] = tested on: AMBEL (Ambrosia artemisifolia); assay: Preemergence herbicidal evaluation; format: in vivo, L.; settings: rated 4-5 weeks after treatment
# How it was run: as §2
# [8] = tested on: CASOB (Cassia obtusifolia); assay: Preemergence herbicidal evaluation; format: in vivo, L.; settings: rated 4-5 weeks after treatment
# How it was run: as §2
# [9] = tested on: IPOHE (Ipomoea hederacea); assay: Preemergence herbicidal evaluation; format: in vivo, (L.) Jacq.; settings: rated 4-5 weeks after treatment
# [10] = tested on: ABUTH (Abutilon theophrasti); assay: Postemergence herbicidal evaluation; format: in vivo, Medic.
# How it was run: as §1
# ZEAMX (Corn, Field) = assay: Preemergence herbicidal evaluation; format: in vivo, Zea mays, L.; settings: rated 4-5 weeks after treatment
# ORYSAT (Rice, Tebonnet) [11] = assay: Flooded paddy, post-transplant rice tolerance; format: in vivo, Oryza sativa, (L.) Tebonnet; settings: flooded paddy, post-transplant rice, rated 3-4 weeks after treatment, 0-9 rating scale
# How it was run: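 Visual 0–9 injury rating against a control, covering stand, vigor, malformation, size, chlorosis and overall appearance. Treatment was post-transplant onto flooded containers (water 1.5–3 cm deep, silt loam) holding two ten-day-old cv. Tebonnet seedlings, maintained on greenhouse benches.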
# [12] = tested on: TRZAWR (Wheat, Winter, cv Riband); assay: Preemergence herbicidal evaluation; format: in vivo, Triticum aestivum; settings: rated 4-5 weeks after treatment
# How it was run: as §2
# CYPIR (Cyperus iria) = assay: Flooded paddy, preemergence weed control; format: in vivo; settings: rated 3-4 weeks after treatment, 0-9 rating scale
# How it was run: (§3)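 Greenhouse paddy test, preemergence. Seeds planted in the top 0.5 cm of silt loam soil, which remained flooded at 1.5–3 cm depth. Scored 0-9 by visual comparison with control.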
# [13] = tested on: MOOVA (Monochoria vaginalis); assay: Flooded paddy, preemergence weed control; format: in vivo, Presl.; settings: rated 3-4 weeks after treatment, 0-9 rating scale
# How it was run: as §3
# [14] = tested on: GLXMAW (Soybean, Williams); assay: Preemergence herbicidal evaluation; format: in vivo, Glycine max, (L.) Merr. cv Williams; settings: rated 4-5 weeks after treatment
# [15] = tested on: ABUTH (Abutilon theophrasti); assay: Preemergence herbicidal evaluation; format: in vivo, Medic.; settings: rated 4-5 weeks after treatment
# [16] = tested on: ECHCG (Echinochloa crus-galli); assay: Preemergence herbicidal evaluation; format: in vivo, (L.) Beau; settings: rated 4-5 weeks after treatment
# How it was run: as §2
# SETVI (Setaria viridis) = assay: Preemergence herbicidal evaluation; format: in vivo, (L.) Beau; settings: rated 4-5 weeks after treatment
# How it was run: as §2
# [17] = tested on: GLXMAW (Soybean, Williams); assay: Postemergence herbicidal evaluation; format: in vivo, Glycine max, (L.) Merr. cv Williams
# How it was run: as §1
smiles,measurement,setting,value
"C[C@H]1OC(c2nsc3ccc(-n4c(=O)cc(C(F)(F)F)n(C)c4=O)cc23)O[C@@H]1C [Compound 48, 3-[3-[(4R,5R)-4,5-dimethyl-1,3-dioxolan-2-yl]-1,2-benzisothiazol-5-yl]-1-methyl-6-(trifluoromethyl)uracil]","Postemergence herbicidal rating, IPOHE",[1]; rate 0.0320 kg/ha,9.0
same,"Postemergence herbicidal rating, IPOHE",[1]; rate 0.0620 kg/ha,9.0
same,"Postemergence herbicidal rating, CHEAL",[2]; rate 0.0320 kg/ha,9.0
same,"Postemergence herbicidal rating, CHEAL",[2]; rate 0.0620 kg/ha,9.0
same,"Postemergence herbicidal rating, AMBEL",[3]; rate 0.0320 kg/ha,9.0
same,"Postemergence herbicidal rating, AMBEL",[3]; rate 0.0620 kg/ha,9.0
same,"Postemergence herbicidal rating, CASOB",[4]; rate 0.0320 kg/ha,1.0
same,"Postemergence herbicidal rating, CASOB",[4]; rate 0.0620 kg/ha,7.0
same,"Postemergence herbicidal rating, ORYSAT","ORYSAT (Rice, Tebonnet) [5]; rate 0.0320 kg/ha",5.5
same,"Postemergence herbicidal rating, ORYSAT","ORYSAT (Rice, Tebonnet) [5]; rate 0.0620 kg/ha",6.0
same,Preemergence herbicidal rating CHEAL,[6]; Rate 0.0620 kg/ha,9.0
same,Preemergence herbicidal rating CHEAL,[6]; Rate 0.1250 kg/ha,9.0
same,Preemergence herbicidal rating CHEAL,[6]; Rate 0.2500 kg/ha,9.0
same,Preemergence herbicidal rating AMBEL,[7]; Rate 0.0620 kg/ha,9.0
same,Preemergence herbicidal rating AMBEL,[7]; Rate 0.1250 kg/ha,9.0
same,Preemergence herbicidal rating AMBEL,[7]; Rate 0.2500 kg/ha,9.0
same,Preemergence herbicidal rating CASOB,[8]; Rate 0.0620 kg/ha,5.0
same,Preemergence herbicidal rating CASOB,[8]; Rate 0.1250 kg/ha,7.5
same,Preemergence herbicidal rating CASOB,[8]; Rate 0.2500 kg/ha,9.0
same,Preemergence herbicidal rating IPOHE,[9]; Rate 0.0620 kg/ha,8.0
same,Preemergence herbicidal rating IPOHE,[9]; Rate 0.1250 kg/ha,8.5
same,Preemergence herbicidal rating IPOHE,[9]; Rate 0.2500 kg/ha,9.0
same,"Postemergence herbicidal rating, ABUTH",[10]; rate 0.0320 kg/ha,9.0
same,"Postemergence herbicidal rating, ABUTH",[10]; rate 0.0620 kg/ha,9.0
same,Preemergence herbicidal rating ZEAMX,"ZEAMX (Corn, Field); Rate 0.0620 kg/ha",7.5
same,Preemergence herbicidal rating ZEAMX,"ZEAMX (Corn, Field); Rate 0.1250 kg/ha",8.0
same,Preemergence herbicidal rating ZEAMX,"ZEAMX (Corn, Field); Rate 0.2500 kg/ha",9.0
same,"herbicidal rating, ORYSAT (rice tolerance)","ORYSAT (Rice, Tebonnet) [11]; rate 0.0080 kg/ha",5.0
same,"herbicidal rating, ORYSAT (rice tolerance)","ORYSAT (Rice, Tebonnet) [11]; rate 0.0320 kg/ha",8.0
same,"herbicidal rating, ORYSAT (rice tolerance)","ORYSAT (Rice, Tebonnet) [11]; rate 0.1250 kg/ha",9.0
same,Preemergence herbicidal rating TRZAWR,[12]; Rate 0.0620 kg/ha,6.0
same,Preemergence herbicidal rating TRZAWR,[12]; Rate 0.1250 kg/ha,8.0
same,Preemergence herbicidal rating TRZAWR,[12]; Rate 0.2500 kg/ha,8.0
same,"herbicidal rating, CYPIR",CYPIR (Cyperus iria); rate 0.0080 kg/ha,0.0
same,"herbicidal rating, CYPIR",CYPIR (Cyperus iria); rate 0.0320 kg/ha,8.0
same,"herbicidal rating, CYPIR",CYPIR (Cyperus iria); rate 0.1250 kg/ha,9.0
same,"herbicidal rating, MOOVA",[13]; rate 0.0320 kg/ha,9.0
same,"herbicidal rating, MOOVA",[13]; rate 0.1250 kg/ha,9.0
same,Preemergence herbicidal rating GLXMAW,[14]; Rate 0.0620 kg/ha,9.0
same,Preemergence herbicidal rating GLXMAW,[14]; Rate 0.1250 kg/ha,9.0
same,Preemergence herbicidal rating GLXMAW,[14]; Rate 0.2500 kg/ha,9.0
same,Preemergence herbicidal rating ABUTH,[15]; Rate 0.0620 kg/ha,9.0
same,Preemergence herbicidal rating ABUTH,[15]; Rate 0.1250 kg/ha,9.0
same,Preemergence herbicidal rating ABUTH,[15]; Rate 0.2500 kg/ha,9.0
same,Preemergence herbicidal rating ECHCG,[16]; Rate 0.0620 kg/ha,9.0
same,Preemergence herbicidal rating ECHCG,[16]; Rate 0.1250 kg/ha,9.0
same,Preemergence herbicidal rating ECHCG,[16]; Rate 0.2500 kg/ha,9.0
same,Preemergence herbicidal rating SETVI,SETVI (Setaria viridis); Rate 0.0620 kg/ha,9.0
same,Preemergence herbicidal rating SETVI,SETVI (Setaria viridis); Rate 0.1250 kg/ha,9.0
same,Preemergence herbicidal rating SETVI,SETVI (Setaria viridis); Rate 0.2500 kg/ha,9.0
same,"Postemergence herbicidal rating, GLXMAW",[17]; rate 0.0320 kg/ha,8.0
same,"Postemergence herbicidal rating, GLXMAW",[17]; rate 0.0620 kg/ha,8.7
"Cc1cccnc1-c1nsc2cc(F)c(-n3c(=O)cc(C(F)(F)F)n(C)c3=O)cc12 [Compound 44, 3-[6-fluoro-3-(3-methyl-2-pyridyl)-1,2-benzisothiazol-5-yl]-1-methyl-6-(trifluoromethyl)uracil]","Postemergence herbicidal rating, IPOHE",[1]; rate 0.0320 kg/ha,9.0
same,"Postemergence herbicidal rating, IPOHE",[1]; rate 0.0620 kg/ha,9.0
same,"Postemergence herbicidal rating, CHEAL",[2]; rate 0.0320 kg/ha,9.0
same,"Postemergence herbicidal rating, CHEAL",[2]; rate 0.0620 kg/ha,9.0
same,"Postemergence herbicidal rating, AMBEL",[3]; rate 0.0320 kg/ha,9.0
same,"Postemergence herbicidal rating, AMBEL",[3]; rate 0.0620 kg/ha,9.0
same,"Postemergence herbicidal rating, CASOB",[4]; rate 0.0320 kg/ha,2.0
same,"Postemergence herbicidal rating, CASOB",[4]; rate 0.0620 kg/ha,4.0
same,"Postemergence herbicidal rating, ORYSAT","ORYSAT (Rice, Tebonnet) [5]; rate 0.0320 kg/ha",2.0
same,"Postemergence herbicidal rating, ORYSAT","ORYSAT (Rice, Tebonnet) [5]; rate 0.0620 kg/ha",3.5
same,Preemergence herbicidal rating CHEAL,[6]; Rate 0.0620 kg/ha,9.0
same,Preemergence herbicidal rating CHEAL,[6]; Rate 0.1250 kg/ha,9.0
same,Preemergence herbicidal rating CHEAL,[6]; Rate 0.2500 kg/ha,9.0
same,Preemergence herbicidal rating AMBEL,[7]; Rate 0.0620 kg/ha,8.0
same,Preemergence herbicidal rating AMBEL,[7]; Rate 0.1250 kg/ha,9.0
same,Preemergence herbicidal rating AMBEL,[7]; Rate 0.2500 kg/ha,9.0
same,Preemergence herbicidal rating CASOB,[8]; Rate 0.0620 kg/ha,1.0
same,Preemergence herbicidal rating CASOB,[8]; Rate 0.1250 kg/ha,5.5
same,Preemergence herbicidal rating CASOB,[8]; Rate 0.2500 kg/ha,9.0
same,Preemergence herbicidal rating IPOHE,[9]; Rate 0.0620 kg/ha,3.0
same,Preemergence herbicidal rating IPOHE,[9]; Rate 0.1250 kg/ha,7.5
same,Preemergence herbicidal rating IPOHE,[9]; Rate 0.2500 kg/ha,9.0
same,"Postemergence herbicidal rating, ABUTH",[10]; rate 0.0320 kg/ha,9.0
same,"Postemergence herbicidal rating, ABUTH",[10]; rate 0.0620 kg/ha,9.0
same,Preemergence herbicidal rating ZEAMX,"ZEAMX (Corn, Field); Rate 0.0620 kg/ha",7.5
same,Preemergence herbicidal rating ZEAMX,"ZEAMX (Corn, Field); Rate 0.1250 kg/ha",7.5
same,Preemergence herbicidal rating ZEAMX,"ZEAMX (Corn, Field); Rate 0.2500 kg/ha",9.0
same,"herbicidal rating, ORYSAT (rice tolerance)","ORYSAT (Rice, Tebonnet) [11]; rate 0.0080 kg/ha",0.0
same,"herbicidal rating, ORYSAT (rice tolerance)","ORYSAT (Rice, Tebonnet) [11]; rate 0.0320 kg/ha",7.5
same,"herbicidal rating, ORYSAT (rice tolerance)","ORYSAT (Rice, Tebonnet) [11]; rate 0.1250 kg/ha",7.5
same,Preemergence herbicidal rating TRZAWR,[12]; Rate 0.0620 kg/ha,6.0
same,Preemergence herbicidal rating TRZAWR,[12]; Rate 0.1250 kg/ha,7.0
same,Preemergence herbicidal rating TRZAWR,[12]; Rate 0.2500 kg/ha,9.0
same,"herbicidal rating, CYPIR",CYPIR (Cyperus iria); rate 0.0080 kg/ha,0.0
same,"herbicidal rating, CYPIR",CYPIR (Cyperus iria); rate 0.0320 kg/ha,8.0
same,"herbicidal rating, CYPIR",CYPIR (Cyperus iria); rate 0.1250 kg/ha,9.0
same,"herbicidal rating, MOOVA",[13]; rate 0.0080 kg/ha,0.0
same,"herbicidal rating, MOOVA",[13]; rate 0.0320 kg/ha,8.5
same,"herbicidal rating, MOOVA",[13]; rate 0.1250 kg/ha,9.0
same,Preemergence herbicidal rating GLXMAW,[14]; Rate 0.0620 kg/ha,5.0
same,Preemergence herbicidal rating GLXMAW,[14]; Rate 0.1250 kg/ha,6.5
same,Preemergence herbicidal rating GLXMAW,[14]; Rate 0.2500 kg/ha,9.0
same,Preemergence herbicidal rating ABUTH,[15]; Rate 0.0620 kg/ha,9.0
same,Preemergence herbicidal rating ABUTH,[15]; Rate 0.1250 kg/ha,9.0
same,Preemergence herbicidal rating ABUTH,[15]; Rate 0.2500 kg/ha,9.0
same,Preemergence herbicidal rating ECHCG,[16]; Rate 0.0620 kg/ha,9.0
same,Preemergence herbicidal rating ECHCG,[16]; Rate 0.1250 kg/ha,9.0
same,Preemergence herbicidal rating ECHCG,[16]; Rate 0.2500 kg/ha,9.0
same,Preemergence herbicidal rating SETVI,SETVI (Setaria viridis); Rate 0.0620 kg/ha,9.0
same,Preemergence herbicidal rating SETVI,SETVI (Setaria viridis); Rate 0.1250 kg/ha,9.0
same,Preemergence herbicidal rating SETVI,SETVI (Setaria viridis); Rate 0.2500 kg/ha,9.0
same,"Postemergence herbicidal rating, GLXMAW",[17]; rate 0.0320 kg/ha,8.5
same,"Postemergence herbicidal rating, GLXMAW",[17]; rate 0.0620 kg/ha,8.5
